Source: PMC6332026, “Synthesis and Pharmacochemistry of New Pleiotropic Pyrrolyl Derivatives” (Molecules, 2015)

Experiments:
[1] = Inhibition of heme-dependent lipid peroxidation of linoleic acid (TBA method); conditions: pH 7.4, 37 °C; read-out: LP IC50 (inhibition of heme-dependent lipid peroxidation of linoleic acid)
Method: The anti-lipid peroxidation activity was determined through the inhibition of heme-dependent lipid peroxidation. The peroxidation of sodium linoleate is induced from a mixture of heme and hydrogen peroxide, which produces free radicals from the side chains of amino acids. The assay is performed at pH 7.4 with a phosphate buffer, and the products of peroxidation are identified with the thiobarbituric acid method (TBA). In particular, malonic dialdehyde, a final product of lipid peroxidation, reacts with TBA and forms a colored product, whose absorbance is measured at 535 nm. […] Compounds 2ii and 2vi with low Clog P values are weak inhibitors of lipid peroxidation. It seems that the increase of volume of Ar^1, measured as molar refractivity MR (Ar^1), enhances IC50 values and reduces the inhibitory activity (2i and 2iii; and 2ii, 2iv and 2vi). For derivatives 2iv and 2v, the presence of an electron-acceptor, e.g., a chloro-substituent on the phenyl ring (Ar^2), diminishes the anti-lipid peroxidation activity.
Firstly, 0.4 mL of heme (50 μΜ), 0.25 mL of sodium linoleate (400 μΜ), 0.1 mL of the solutions of the tested compounds (concentrations varying from 10–100 μΜ in DMSO) and 0.25 mL of H2O2 (500 μΜ) were incubated for 10 min in 37 °C in a phosphate buffer (KH2PO4–KOH 50 mM, pH 7.4). The peroxidation products were identified with the reaction of thiobarbituric acid, by adding successively 0.5 mL of 40% trichloroacetic acid (TCA) and 0.5 mL of 2% of thiobarbituric acid (TBA). The addition was followed by stirring and heating at 90 °C for 20 min, and then, 1 mL of acetic acid and 1 mL of chloroform were added and the absorbance measured at 535 nm. IC50 values were determined.

[2] = Lipophilicity as RM values by reverse-phase thin layer chromatography (RPTLC); format: physicochemical; conditions: methanol/water 75/25 v/v with ammonia drops
Source text: Since lipophilicity is a significant physicochemical property determining the absorption, distribution, metabolism and excretion properties (ADME) of drugs, we attempted to determine experimentally the lipophilicity as RM values with reverse-phase thin layer chromatography (RPTLC). Lipophilicity was also theoretically calculated as Clog P values. According to the calculated Clog P values, the most lipophilic compounds were 2iii (6.37) and 2v (6.04). However, this observation was not supported by the RM values, since Compound 2iii presented very low lipophilicity (−0.061). Furthermore, the lipophilicity of Compound 2v could not be determined experimentally under the reported conditions. Attempts to correlate Clog P and RM values failed. From our results (Table 2), it can be concluded that RM values could not be used as a successful relative measure of the overall lipophilic/hydrophilic properties of these molecules. Tentatively, this can be attributed to the different nature of the hydrophilic and lipophilic phases in the two systems. Clog P refers to n-octanol/water, whereas RM in this case refers to methanol/water. Moreover, it is likely that pyrrole derivatives form hydrogen bonds within the hydrophilic phase.
Reverse-phase thin layer chromatography (RPTLC) was used for the determination of RM values. Silica gel plates were saturated with 5% v/v liquid paraffin in petroleum ether, and the mobile phase was methanol/water (75/25 v/v) with the addition of ammonia drops. Spots were detected under UV light. RM values were determined by the corresponding Rf values (from five measurements for each compound) using the equation [43]: RM = log[(1/Rf) − 1](1)

soybean lipoxygenase = biological target: T1, soybean lipoxygenase (Glycine max, UniProt P08170); assay: Inhibition of soybean lipoxygenase (UV absorbance-based enzyme assay); format: biochemical; conditions: for inhibition at 100 µM: read-out: LOX % inhibition
T1 construct: purchased Sigma Chemical, Co. (St. Louis, MO, USA)
T1 sequence (P08170 1-839): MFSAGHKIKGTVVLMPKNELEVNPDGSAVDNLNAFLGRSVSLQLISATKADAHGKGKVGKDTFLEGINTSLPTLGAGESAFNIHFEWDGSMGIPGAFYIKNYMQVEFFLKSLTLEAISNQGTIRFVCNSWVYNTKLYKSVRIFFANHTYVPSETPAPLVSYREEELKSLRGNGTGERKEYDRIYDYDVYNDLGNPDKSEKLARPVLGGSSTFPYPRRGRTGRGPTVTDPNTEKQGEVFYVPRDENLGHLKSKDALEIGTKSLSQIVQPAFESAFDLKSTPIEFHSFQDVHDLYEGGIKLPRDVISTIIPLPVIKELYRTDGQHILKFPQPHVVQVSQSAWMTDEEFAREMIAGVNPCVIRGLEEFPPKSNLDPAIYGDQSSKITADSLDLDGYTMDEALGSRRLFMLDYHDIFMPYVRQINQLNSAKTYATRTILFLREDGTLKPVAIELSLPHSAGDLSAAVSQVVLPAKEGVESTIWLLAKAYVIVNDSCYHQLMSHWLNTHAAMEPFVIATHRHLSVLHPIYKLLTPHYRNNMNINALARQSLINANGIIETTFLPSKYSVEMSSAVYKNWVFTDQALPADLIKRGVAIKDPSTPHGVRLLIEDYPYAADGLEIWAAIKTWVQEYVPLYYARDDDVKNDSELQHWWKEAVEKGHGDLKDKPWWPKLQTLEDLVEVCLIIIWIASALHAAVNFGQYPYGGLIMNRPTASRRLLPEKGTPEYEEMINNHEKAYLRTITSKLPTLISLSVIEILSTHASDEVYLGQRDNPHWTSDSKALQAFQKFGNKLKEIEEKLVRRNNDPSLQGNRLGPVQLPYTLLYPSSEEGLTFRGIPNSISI
Method: Lipoxygenase catalyzes the first two steps in the metabolism of arachidonic acid to leukotrienes. LTB4 generation is important in the pathogenesis of neutrophil-mediated inflammatory diseases with a marked relation to the severity of cardiovascular diseases, asthma and cancer. We evaluated the synthesized pyrroles for their ability to inhibit soybean LOX by the UV absorbance-based enzyme assay. […] The inhibition of COX-2, as a peroxidase, was determined by a colorimetric assay with the oxidation of N,N,N′,N′-tetramethyl-p-phenylenediamine (TMPD).
The tested compounds were dissolved in DMSO, and the final concentration was 100 μΜ. The compounds were incubated at room temperature with sodium linoleate as a substrate (0.1 mL) in a buffer solution of Tris:HCl (pH 9.00) and 0.2 mL of a solution of soybean lipoxygenase.

Row | melting point [°C] | IC50 [1] [µM] | RM [2] | IC50 (soybean lipoxygenase; pH 9.00, read-out: LOX IC50) [µM] | Compound | inhibition at 100 µM (soybean lipoxygenase) [%]
1 | 233 to 235 | 100 | −0.061 | – | O=C(c1cccs1)c1c[nH]cc1-c1ccc(OCc2ccc(Br)cc2)cc1 [Compound 2iii, (4-{4-[(4-Bromobenzyl)oxy]phenyl}-1H-pyrrol-3-yl)(thien-2-yl)methanone] | –
2 | 270 to 272 | 72 | −0.149 | – | O=C(c1ccccc1)c1c[nH]cc1-c1cccc2ccccc12 [Compound 2iv, [4-(Naphth-1-yl)-1H-pyrrol-3-yl](phenyl)methanone] | 10
3 | 165 to 166 | 40 | 0.091 | 1000 | O=C(c1cccs1)c1c[nH]cc1-c1cccc(Oc2ccccc2)c1 [Compound 2i, [4-(3-Phenoxyphenyl)-1H-pyrrol-3-yl](thien-2-yl)methanone] | –

Row | Compound | melting point [°C] | IC50 [1] [µM] | RM [2] | IC50 (soybean lipoxygenase; pH 9.00, read-out: LOX IC50) [µM] | inhibition at 100 µM (soybean lipoxygenase) [%]
4 | O=C(c1ccc(Cl)cc1)c1c[nH]cc1-c1cccc2ccccc12 [Compound 2v, (4-Chlorophenyl)[4-(naphth-1-yl)-1H-pyrrol-3-yl]methanone] | 285 to 286 | 150 | – | – | 32
